Reference: patent US7462625B2, “Gonadotropin-releasing hormone receptor antagonists and methods relating thereto” (Neurocrine Biosciences, Inc., priority 2000, dated 2008)

Biological target: T1, GnRH receptor (Homo sapiens, UniProt P30968)
T1 construct: expressed in transfected cells
T1 sequence (P30968 1-328): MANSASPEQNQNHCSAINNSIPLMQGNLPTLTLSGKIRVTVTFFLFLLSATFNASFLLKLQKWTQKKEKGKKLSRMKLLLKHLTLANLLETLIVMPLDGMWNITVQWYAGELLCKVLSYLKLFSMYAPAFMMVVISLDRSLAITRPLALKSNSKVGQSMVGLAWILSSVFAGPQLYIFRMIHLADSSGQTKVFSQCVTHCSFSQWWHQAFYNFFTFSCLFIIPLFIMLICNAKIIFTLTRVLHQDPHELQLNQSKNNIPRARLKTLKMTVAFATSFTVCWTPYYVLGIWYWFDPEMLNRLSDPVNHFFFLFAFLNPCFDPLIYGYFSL
Assay: GnRH receptor membrane binding assay
Details: not given
Method: Radio-Iodination of GnRH Peptide
The GnRH analog is labeled by the chloramine-T method. […] The reaction is stopped by the addition of 60 μg sodium metabisulfite and the free iodine is removed by passing the iodinated mixture through a C-8 Sep-Pak cartridge (Millipore Corp., Milford, Mass.). The peptide is eluted with a small volume of 80% acetonitrile/water. […] The purified radioactive peptide is stored in 0.1% BSA/20% acetonitrile/0.1% TFA at −80° C. and can be used for up to 4 weeks.
GnRH Receptor Membrane Binding Assay
Cells stably, or transiently, transfected with GnRH receptor expression vectors are harvested, resuspended in 5% sucrose and homogenized using a polytron homogenizer (2×15 sec). Nucleii are removed by centrifugation (3000×g for 5 min.), and the supernatant centrifuged (20,000×g for 30 min, 4° C.) to collect the membrane fraction. The final membrane preparation is resuspended in binding buffer (10 mM Hepes (pH 7.5), 150 mM NaCl, and 0.1% BSA) and stored at −70° C. Binding reactions are performed in a Millipore MultiScreen 96-well filtration plate assembly with polyethylenimine coated GF/C membranes. […] The reaction is terminated after 90 minutes by application of vacuum and washing (2×) with phosphate buffered saline. Bound radioactivity is measured using 96-well scintillation counting (Packard Topcount) or by removing the filters from the plate and direct gamma counting. Ki values are calculated from competition binding data using non-linear least squares regression using the Prism software package (GraphPad Software).

Ki, < 100 nM:
COc1cccc(-c2c(C)n(Cc3c(F)cccc3F)c(=O)n(CCN(C)CCc3ccccn3)c2=O)c1F [9-24]

Same assay, conditions: GnRH receptor membrane binding assay, [125I]-labeled GnRH peptide; read-out: Ki

Ki, < 100 nM:
COc1cccc(-c2c(C)n(Cc3c(F)cccc3F)c(=O)n(C[C@H](C)NCc3ccc(O)cc3)c2=O)c1F [9-680]
Cc1c(-c2ccc3c(c2)OCO3)c(=O)n(CCNCCN(C)C)c(=O)n1Cc1c(F)cccc1F [9-242]
Cc1cc(=O)n(C[C@H](N)Cc2ccccc2)c(=O)n1Cc1c(F)cccc1F [8-7]
Cc1ccc(N2CCN(CCn3c(=O)c(-c4ccc(Oc5ccccc5)cc4)c(C)n(Cc4c(F)cccc4F)c3=O)CC2)cc1 [9-225]
CN[C@@H](Cc1ccccc1)Cn1c(=O)c(-c2cccc(OC)c2F)c(C)n(Cc2c(F)cccc2F)c1=O [9-517]
Cc1c(-c2ccccc2F)c(=O)n(CCN(C)C)c(=O)n1Cc1c(F)cccc1F [9-237]
COc1ccc(Nc2nc(-c3c(C)n(Cc4c(F)cccc4F)c(=O)n(C[C@H](N)c4ccccc4)c3=O)cs2)cc1 [12-10]
Cc1ccc(N2CCN(CCn3c(=O)c(-c4ccc5c(c4)OCCO5)c(C)n(Cc4c(F)cccc4F)c3=O)CC2)cc1 [9-281]
COc1cccc(-c2c(C)n(Cc3c(F)cccc3F)c(=O)n([C@H](C)CNCc3cc(C)cc(C)c3)c2=O)c1 [9-454]
COc1cccc(-c2c(C)n(Cc3c(F)cccc3F)c(=O)n(C[C@H](C)N(C)Cc3ccccn3)c2=O)c1F [9-409]
COc1cccc(-c2c(C)n(Cc3c(F)cccc3F)c(=O)n(C[C@@H](C(C)C)N(C)C)c2=O)c1F [9-711]
CCN(CCc1ccccn1)CCn1c(=O)c(-c2cccc(OC)c2)c(C)n(Cc2c(F)cccc2F)c1=O [1-10]
COc1ccccc1CCNCCn1c(=O)c(-c2ccc(Oc3ccccc3)cc2)c(C)n(Cc2c(F)cccc2F)c1=O [9-215]
COc1cccc(-c2c(C)n(Cc3c(F)cccc3F)c(=O)n(C[C@@H](NC(C)C)C(C)C)c2=O)c1F [9-712]
COc1cccc(-c2c(C)n(Cc3c(F)cccc3F)c(=O)n(CCN3CC[C@@H](NC(C)=O)C3)c2=O)c1 [9-7]
CCOC(=O)N1CCN(CCn2c(=O)c(-c3ccc4c(c3)OCO4)c(C)n(Cc3c(F)cccc3F)c2=O)CC1 [9-362]
Cc1c(-c2ccc3c(c2)OCCO3)c(=O)n(CCN2CCN(c3ccccc3)CC2)c(=O)n1Cc1c(F)cccc1F [9-199]
Cc1c(-c2ccc3c(c2)OCO3)c(=O)n(CCN2CCN(c3cccc(Cl)c3)CC2)c(=O)n1Cc1c(F)cccc1F [9-70]
COc1cccc(-c2c(C)n(Cc3c(F)cccc3F)c(=O)n(CC3CCCN3)c2=O)c1 (stereo not shown) [9-26]
Cc1c(-c2ccc3c(c2)OCCO3)c(=O)n(CCN(C)CCc2ccccn2)c(=O)n1Cc1c(F)cccc1F [6-3]
Cc1c(-c2ccc3c(c2)OCCO3)c(=O)n(CCN2CC(C)OC(C)C2)c(=O)n1Cc1c(F)cccc1F (stereo not shown) [9-96]
COc1cccc(-c2c(C)n(Cc3c(F)cccc3F)c(=O)n([C@H](C)CNCc3ccccn3)c2=O)c1F [9-512]
Cc1nc(-c2c(C)n(Cc3c(F)cccc3F)c(=O)n(C[C@H](N)c3ccccc3)c2=O)cs1 [12-1]
CCOc1cccc(-c2c(C)n(Cc3c(F)cccc3F)c(=O)n(C[C@H](N)c3ccccc3)c2=O)c1 [8-59]
CCCN1CCN(CCn2c(=O)c(-c3ccccc3F)c(C)n(Cc3c(F)cccc3F)c2=O)CC1 [9-240]
Cc1c(-c2ccc3c(c2)OCCO3)c(=O)n(CCNCCN(C)C)c(=O)n1Cc1c(F)cccc1F [9-270]
Cc1c(-c2ccccc2F)c(=O)n(CCN2CCN(C(=O)OCc3ccccc3)CC2)c(=O)n1Cc1c(F)cccc1F [9-58]
COc1cccc(-c2c(C)n(Cc3c(F)cccc3F)c(=O)n(CCN3CCC(NC(=O)OC(C)(C)C)C3)c2=O)c1 (stereo not shown) [7-4]
COc1cccc(-c2c(C)n(Cc3c(F)cccc3F)c(=O)n(C[C@H](N)COCc3ccccc3)c2=O)c1F [8-15]
COc1ccc(Nc2nc(-c3c(C)n(Cc4c(F)cccc4F)c(=O)n(C[C@H](N)c4ccccc4)c3=O)cs2)cc1OC [12-27]
COc1cccc(-c2c(C)n(Cc3c(F)cccc3F)c(=O)n(C[C@H](C)NCc3ccc(Cl)s3)c2=O)c1F [9-677]
COc1cccc(-c2c(C)n(Cc3c(F)cccc3F)c(=O)n(CCN(CCc3ccccn3)CC3CC3)c2=O)c1 [1-12]
COc1cccc(-c2c(C)n(Cc3c(F)cccc3F)c(=O)n(CCN3CCC(NC(=O)C(F)(F)F)C3)c2=O)c1 (stereo not shown) [7-3]
COc1cccc(-c2c(C)n(Cc3c(F)cccc3F)c(=O)n(CC(C)NC(C)C(C)C)c2=O)c1F (stereo not shown) [9-399]
Cc1c(-c2ccccc2F)c(=O)n(CCNCCN(C)C)c(=O)n1Cc1c(F)cccc1F [9-227]
Cc1c(-c2ccccc2F)c(=O)n(CCN2CCN(c3cccc(Cl)c3)CC2)c(=O)n1Cc1c(F)cccc1F [9-56]
COc1cccc(-c2c(C)n(Cc3c(F)cccc3F)c(=O)n([C@H](C)CNCc3ccccc3)c2=O)c1 [9-312]
COc1cccc(-c2c(C)n(Cc3c(F)cccc3F)c(=O)n(C[C@H](C)NCc3cccn3C)c2=O)c1F [9-664]
CCN[C@H](Cn1c(=O)c(-c2cccc(OC)c2F)c(C)n(Cc2c(F)cccc2F)c1=O)C(C)C [9-714]
CCN(CC)CCN(C)CCn1c(=O)c(-c2ccc(C(C)C)cc2)c(C)n(Cc2c(F)cccc2F)c1=O [9-263]
COc1cccc(-c2c(C)n(Cc3c(F)cccc3F)c(=O)n([C@H](C)CNCc3cccc(F)c3)c2=O)c1 [9-448]
COc1cccc(-c2c(C)n(Cc3c(F)cccc3F)c(=O)n([C@H](C)CNCc3cc(Cl)ccc3O)c2=O)c1F [9-503]
COc1cccc(-c2c(C)n(Cc3c(F)cccc3F)c(=O)n(C[C@H](N)C(=O)Nc3ccccc3)c2=O)c1 [8-51]
Cc1c(-c2csc(Cc3ccccc3)n2)c(=O)n(C[C@H](N)c2ccccc2)c(=O)n1Cc1c(F)cccc1F [12-5]
COc1cccc(-c2c(C)n(Cc3c(F)cccc3F)c(=O)n(CCN3CCC(N4CCCC4)CC3)c2=O)c1 [7-2]
Cc1cc(=O)n(C[C@@H](N)Cc2ccccc2)c(=O)n1Cc1c(F)cccc1F [8-4]
CCC(C)C(C)CN[C@@H](C)Cn1c(=O)c(-c2cccc(OC)c2F)c(C)n(Cc2c(F)cccc2F)c1=O (stereo partly shown) [9-678]
CCN(CCc1ccccn1)CCn1c(=O)c(-c2ccc3c(c2)OCO3)c(C)n(Cc2c(F)cccc2F)c1=O [3-4]
Cc1c(-c2ccc3c(c2)OCO3)c(=O)n(C[C@H](CO)N(CC2CC2)CC2CC2)c(=O)n1Cc1c(F)cccc1F [9-745]
Cc1c(-c2ccc3c(c2)OCO3)c(=O)n(CCNCc2cc(C(F)(F)F)cc(C(F)(F)F)c2)c(=O)n1Cc1c(F)cccc1F [9-63]
COc1cccc(-c2c(C)n(Cc3c(F)cccc3F)c(=O)n([C@H](C)CNCc3cccc4ccccc34)c2=O)c1F [9-502]
Cc1c(-c2ccc3c(c2)OCO3)c(=O)n(CCNCC(F)(F)F)c(=O)n1Cc1c(F)cccc1F [9-164]
COc1ccc(CCNCCn2c(=O)c(-c3ccc4c(c3)OCO4)c(C)n(Cc3c(F)cccc3F)c2=O)cc1OC [9-244]
COc1ccc(-c2c(C)n(Cc3c(F)cccc3F)c(=O)n(C[C@H](N)c3ccccc3)c2=O)cn1 [8-58]
CCc1c(-c2cccc(OC)c2)c(=O)n(C[C@H](N)c2ccccc2)c(=O)n1Cc1c(F)cccc1F [15-2]
Cc1cc(=O)n(C[C@@H](N)CC2CCCCC2)c(=O)n1Cc1c(F)cccc1F [8-12]
COc1cccc(-c2c(C)n(Cc3c(F)cccc3F)c(=O)n(CC[C@@H](N)c3ccccc3)c2=O)c1 [9-774]
COc1ccc(CCNCCn2c(=O)c(-c3ccccc3F)c(C)n(Cc3c(F)cccc3F)c2=O)cc1OC [9-229]
Cc1c(-c2ccc3c(c2)OCO3)c(=O)n(CCN[C@@H](C)c2ccc3ccccc3c2)c(=O)n1Cc1c(F)cccc1F [9-247]
Cc1c(-c2ccc(Oc3ccccc3)cc2)c(=O)n(CCNCc2cc(C(F)(F)F)cc(C(F)(F)F)c2)c(=O)n1Cc1c(F)cccc1F [9-32]
Cc1c(-c2ccc3c(c2)OCO3)c(=O)n(CCNCCN(C(C)C)C(C)C)c(=O)n1Cc1c(F)cccc1F [9-64]
Cc1c(-c2ccc3c(c2)OCO3)c(=O)n(CCNC2CCC(C)CC2)c(=O)n1Cc1c(F)cccc1F (stereo not shown) [9-320]
Cc1c(-c2ccc(Oc3ccccc3)cc2)c(=O)n(CCN(C)CCc2ccccn2)c(=O)n1Cc1c(F)cccc1F [6-2]
